Columns and labels:
[1] = Body weight gain after neonatal HI and intranasal treatment; assay type: in vivo, mouse; conditions: across surgeries, treatments and genotypes
Text: Unpaired t test was used to analyze the cue-induced fear conditioning experimental data. For the analysis of the total exploration time during the object recognition test and the open field experiment, one-way Analysis of Variance (ANOVA) was used, followed by a Tukey's multiple comparisons post-hoc test. Two-way ANOVA, with a Tukey's multiple comparisons post-hoc test, was used to analyze time spent exploring individual objects during the object recognition test, as well as the histomorphologic data and image analysis data. Two-way repeated measures ANOVA with a Tukey's multiple comparisons post-hoc test were used to analyze the body weight. Data are presented as mean±SEM. P values <0.05 were considered statistically significant.
To assess potential adverse effects of intranasal C3a administration on the overall animal health status and development, the inventors recorded animal weight gain across surgeries, treatments and different genotype conditions.

[2] = test system: WT mice subjected to photothrombotic stroke in the motor cortex; assay: Cylinder test (spontaneous forelimb asymmetry) after photothrombotic stroke; assay type: in vivo, mouse
Protocol: Cortical photothrombosis was induced using the Rose Bengal method (Lee et al., 2007; Watson et al., 1985) with some modifications. Anesthesia was induced with isoflurane (Forene®, Abbott) in air and oxygen (1:1) initially at 5% and reduced to 2.5% during the surgical procedure. Body temperature was monitored by a rectal probe and maintained at 37° C. using a homeothermic control unit (Harvard Apparatus). Anesthetized mice were placed in a stereotaxic frame, the skull was exposed through a midline scalp incision and Rose Bengal (200 μl, 10 mg/ml solution in sterile saline, Sigma) was injected intraperitoneally. After 5 min, the skull and underlying brain tissue were illuminated for 12 min by a 2 mm diameter cold laser beam (50 mW, 561 nm; Cobolt AB) positioned at AP +0.5 mm and ML −2.7 mm relative to Bregma, targeting the border between left primary somatosensory and motor cortex (Porritt et al., 2012). For intervention experiments targeting motor cortex, stroke was induced as above with the following modifications: Transcranial illumination lasting 15 min was delivered using cold light source (LQ1600, Fiberoptic-Heim AG) equipped with 2 mm wide fiber optic probe and directed to AP +0 and ML −1.5 relative to Bregma. After illumination, the scalp was sutured and mice were placed in a warm cage for 45 min to recover from anesthesia prior to being returned to the home cage. Mice were provided with moist mashed food placed on the floor of the home cage and their weight was monitored daily for 7 days after surgery. There were no significant differences in body weight, body temperature (36.5±0.5° C.), duration of surgery, or post-stroke mortality between cohorts. Each cohort contained an even distribution of mice from the matched strains or treatment groups.
Purified human C3a peptide (Complement Technologies) was diluted in sterile phosphate buffered saline (PBS) to a concentration of 200 nM and a total of 20 μl (10 μl/nostril; corresponding to approximately 1.13 μg/kg body weight) of peptide solution or PBS was given intranasally to awake, hand-restrained mice held in a supine position. Solutions were administered through a pipette tip, drop-wise in 5 μl portions divided by 1 min intervals to allow for absorption. C3a or PBS was given every 24 hours on days 7 to 21 post-stroke for the short-term study or on days 7 to 28 post-stroke for the long-term study. Mice were assigned to C3a or PBS treatment using randomization stratified by body weight to avoid potential confounding effects of body weight on behavioural performance. The investigators carrying out behavioural studies and analysing data were blinded to treatment group. For the assessment of potential systemic anaphylactic response due to intranasal C3a inoculation, body temperature was monitored using a rectal temperature probe (Harvard Apparatus) inserted approximately 4 mm into the rectum of awake mice restrained by the scruff. Baseline temperature was taken before intranasal administration and 5, 15, 30, 45 and 75 min after C3a or PBS administration.
Functional impairment of mice treated intranasally with C3a or vehicle was assessed using a modified cylinder test and a grid walking task to closely evaluate forepaw function. Mice were tested once on each task one week before stroke induction to establish baseline performance. Next, they were tested on days 7, 14 and 21 (short-term study) or days 7, 14, 28, 42 and 56 (long-term study) post-stroke. […]

C3a: Purified human C3a peptide (Complement Technologies), C3a receptor agonist, amino acid sequence SEQ ID NO: 1
body weight gain [1]: neither the surgery nor the C3a treatment affected body weight gain | cylinder task average scores on last day of testing, C3a vs PBS ([2]; long-term study, day 56, Sidak's test P=0.0687): only a trend toward a difference between groups | cylinder task performance at days 28 and 56 vs day 7 ([2]; long-term study, Dunnett's test P=0.032 and P=0.0019): sustained functional improvement | mice that improved affected paw usage between day 7 and day 56 ([2]; long-term study, paired t-test P=0.009): 8/10 | right paw use for body support, course between days 7 and 21 ([2]; short-term study, C3a days 7-21, n=10 mice/group): continuous improvement | frequency of right paw use on day 21 vs baseline ([2]; short-term study, P=0.062): did not differ from baseline performance
